# Laboratory results taken from patent US20160137639A1, “TRIAZOLE-ISOXAZOLE COMPOUND AND MEDICAL USE THEREOF” (JAPAN TOBACCO INC., priority 2012, published 2016).
# pEC50: −log10 of the molar value. Read-outs that look alike come from different tables or passages of the source.
# Assays:
# [1] = target: T1, human RORγ (Homo sapiens, UniProt P51449); experiment: Luciferase reporter gene assay of inhibitory effect against RORγ transcriptional activity (GAL4-hRORγ plasmid in CHO cells); assay type: cell-based; conditions: for pEC50: read-out: LUC EC50 hRORg
# T1 construct: human, NM_005060.3 and from Ser253 to Lys518; expressed in transfected cells; host or cells: CHO cells (transient co-transfection with pG5-Luc reporter)
# T1 sequence (P51449 253-518): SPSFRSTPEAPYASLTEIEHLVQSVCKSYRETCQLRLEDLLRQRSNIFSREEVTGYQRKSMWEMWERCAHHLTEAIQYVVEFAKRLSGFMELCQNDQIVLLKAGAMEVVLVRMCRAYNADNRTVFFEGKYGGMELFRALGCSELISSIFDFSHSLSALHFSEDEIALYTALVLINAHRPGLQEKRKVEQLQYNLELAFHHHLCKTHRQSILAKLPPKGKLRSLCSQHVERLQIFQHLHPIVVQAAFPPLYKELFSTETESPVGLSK
# [2] = target: T2, mouse RORγ (Mus musculus, UniProt P51450); experiment: Luciferase reporter gene assay of inhibitory effect against RORγ transcriptional activity (GAL4-mRORγ plasmid in CHO cells); assay type: cell-based; conditions: for pEC50: read-out: LUC EC50 mRORg
# T2 construct: mouse, NM_011281.2 and from Ile251 to Lys516; expressed in transfected cells; host or cells: CHO cells (transient co-transfection with pG5-Luc reporter)
# T2 sequence (P51450 251-516): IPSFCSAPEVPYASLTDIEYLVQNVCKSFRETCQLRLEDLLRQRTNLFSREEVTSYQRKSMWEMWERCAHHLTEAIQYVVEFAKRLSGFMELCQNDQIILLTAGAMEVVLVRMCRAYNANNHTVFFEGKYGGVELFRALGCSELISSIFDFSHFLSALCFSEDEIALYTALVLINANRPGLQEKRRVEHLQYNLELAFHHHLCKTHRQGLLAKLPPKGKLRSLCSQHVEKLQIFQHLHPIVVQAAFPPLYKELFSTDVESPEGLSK
# Summary of the method: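 Readout is intracellular luciferase after 2-day compound exposure (8 concentrations, 0.1% DMSO) in CHO cells expressing GAL4 fused to mouse RORγ LBD residues Ile251–Lys516 plus pG5-Luc reporter. EC50 fitted from %-of-control; points showing resazurin-detected cytotoxicity dropped.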
Structure (SMILES),EC50 ([1]; read-out: LUC EC50 (μM) hRORg),EC50 ([2]; read-out: LUC EC50 (μM) mRORg),further results
Cc1ccc(NC(=O)C[C@H](CCO)c2nnc(-c3cc(CC(C)C)on3)n2C2CC2)c(C)c1 [Example F-659],,,pEC50 [1]: > 5.52; pEC50 [2]: > 5.52
C=CCC(CC(=O)Nc1ccc(C)cc1C)c1nnc(CCCC(C)(C)C)n1C1CC1 (racemic) [Example F-306],< 3 µM,< 3 µM,
Cc1c(Br)cccc1NC(=O)CCc1nnc(CCC(C)C)n1C1CC1 [Example F-84],< 3 µM,< 3 µM,
Cc1ccc(NC(=O)C[C@H](CCC(=O)O)c2noc(-c3cc(CCC(C)C)on3)c2C(F)(F)F)c(Cl)c1 [Example E-16],< 3 µM,< 3 µM,
Cc1ccc(NC(=O)CC(CCO)c2nnc(CCCC(C)(C)C)n2C2CC2)c(C)c1 (racemic) [Example F-307],< 3 µM,< 3 µM,
Cc1ccc(NC(=O)[C@@H](CC(=O)O)Cc2noc([C@H]3C[C@@H](CC(C)C)C3)c2C2CC2)c(C)c1 [Example F-668],,,pEC50 [1]: < 5.52; pEC50 [2]: > 5.52
Cc1ccc(NC(=O)CC(CCCO)c2nnc(CCCC(C)C)n2C2CC2)c(C)c1 (racemic) [Example F-214],< 3 µM,< 3 µM,
CC(C)CCc1nnc(CCC(=O)Nc2cc(F)cc(Cl)c2)n1C1CC1 [Example F-109],> 3 µM,> 3 µM,
CC(=O)N1C[C@H](C(=O)Nc2ccc(C)cc2C)[C@@H](c2nnc(C3CN(S(=O)(=O)C(C)C)C3)n2C2CC2)C1 (racemic) [Example F-418],> 3 µM,> 3 µM,
Cc1ccc(NC(=O)[C@H]2C[C@@H](O)C[C@@H]2c2nnc([C@H]3C[C@@H](CC(C)C)C3)n2C2CC2)c(C)c1 (racemic) [Example F-431],< 3 µM,< 3 µM,
COC(=O)N1C[C@H](C(=O)Nc2ccc(C)cc2C)[C@@H](c2nnc(CCCC(C)(C)C)n2C2CC2)C1 (racemic) [Example F-399],< 3 µM,< 3 µM,
Cc1ccc(NC(=O)[C@H]2CN(C(=O)OC(C)(C)C)C[C@@H]2c2nnc([C@H]3C[C@@H](CC(C)(C)C)C3)n2C2CC2)c(C)c1 [Example F-540],,,pEC50 [1]: > 5.52; pEC50 [2]: > 5.52
Cc1cc(Cl)ccc1NC(=O)C[C@H](CCO)c1nnc(-c2cc(CC(C)(C)C)on2)n1C1CC1 [Example F-608],,,pEC50 [1]: > 5.52; pEC50 [2]: > 5.52
"COC1(CC(C)C)CC(c2nnc([C@H]3CN(C(C)=O)C[C@@H]3C(=O)Nc3ccc(C)cc3C)n2C2CC2)C1 (single isomer, unassigned) [Example F-483]",< 3 µM,< 3 µM,
CC(=O)N1C[C@H](C(=O)Nc2cccc(Cl)c2C)[C@@H](c2nnc(CCC(C)C)n2C2CC2)C1 (racemic) [Example F-145],< 3 µM,< 3 µM,
Cc1ccc(NC(=O)C[C@H](NC(=O)OCc2ccccc2)c2nnc(CCCC(C)(C)C)n2C2CC2)c(C)c1 [Example F-355],< 3 µM,< 3 µM,
"Cc1ccc(NC(=O)CCc2nnc(C3CC(COC(C)C)C3)n2C2CC2)c(C)c1 (single isomer, unassigned) [Example F-478]",> 3 µM,< 3 µM,
Cc1ccc(NC(=O)C[C@@H](c2nnc(CCCC(C)(C)C)n2C2CC2)N2CCCC2=O)c(C)c1 [Example F-403],< 3 µM,< 3 µM,
Cc1cc(C(F)(F)F)ccc1NC(=O)C[C@H](CCO)c1nnc([C@H]2C[C@@H](CC(C)C)C2)n1C1CC1 [Example F-546],,,pEC50 [1]: > 5.52; pEC50 [2]: > 5.52
CCn1c(CCC(=O)Nc2cccc3c2CCCC3)nnc1C1Cc2ccccc2C1 [Example F-7],> 3 µM,< 3 µM,
Cc1ccc(NC(=O)[C@H]2CN(S(=O)(=O)C(F)F)C[C@@H]2c2nnc([C@H]3C[C@@H](CC(C)(C)C)C3)n2C2CC2)c(C)c1 [Example F-550],,,pEC50 [1]: > 5.52; pEC50 [2]: > 5.52
Cc1ccc(NC(=O)C[C@@H](CCO)c2nnc(-c3cc(CC(C)C)on3)n2C2CC2)c(C)c1 [Example F-458],> 3 µM,> 3 µM,
Cc1ccc(NC(=O)C[C@H](CCC(=O)O)c2noc(-c3cc(CC(C)C)on3)c2C(F)(F)F)c(F)c1 [Example E-12],> 3 µM,< 3 µM,
"Cc1ccc(NC(=O)C(C)C(CCO)c2nnc([C@H]3C[C@@H](CC(C)C)C3)n2C2CC2)c(C)c1 (single isomer, unassigned) [Example F-490]",> 3 µM,> 3 µM,
COc1cc(C)ccc1CNC(=O)CC(CCO)c1nnc(CCCC(C)C)n1C1CC1 (racemic) [Example F-202],< 3 µM,< 3 µM,

Structure (SMILES),EC50 ([1]; read-out: LUC EC50 (μM) hRORg),EC50 ([2]; read-out: LUC EC50 (μM) mRORg),further results
Cc1ccc(NC(=O)C[C@H](CCO)c2nnc([C@H]3C[C@@H](CC(C)(C)C)C3)n2C2CC2)c(C)c1 [Example F-561],,,pEC50 [1]: > 5.52; pEC50 [2]: > 5.52
Cc1ccc(NC(=O)C[C@H](CCC(=O)O)c2noc(-c3cc(C(C)(C)C(F)(F)F)on3)c2C2CC2)c(Cl)c1 [Example E-54],< 3 µM,< 3 µM,
Cc1c(Cl)cccc1NC(=O)CC(O)c1nnc(CCC(C)C)n1C1CC1 (racemic) [Example F-164],> 3 µM,< 3 µM,
Cc1cccc(NC(=O)CCc2nnc(CCCC(C)C)n2C2CC2)c1C [Example F-216],< 3 µM,< 3 µM,
Cc1ccc(NC(=O)C[C@H](CCC(=O)O)c2noc(-c3cc(CC(C)C)on3)c2C2CC2)c(Cl)c1 [Example E-01],< 3 µM,< 3 µM,
Cc1ccc(NC(=O)CC(CC(=O)N2CC[C@H](O)C2)c2nnc([C@H]3C[C@@H](CC(C)C)C3)n2C2CC2)c(C)c1 (mixture of isomers) [Example F-503],,,pEC50 [1]: < 5.52; pEC50 [2]: < 5.52
CC(C)C(F)(F)c1cc(-c2onc([C@@H](CCC(=O)O)CC(=O)Nc3ccc(Cl)cc3F)c2C2CC2)no1 [Example E-55],< 3 µM,< 3 µM,
CCn1c(CCC(=O)NC2CCCc3ccccc32)nnc1C1Cc2ccccc2C1 (stereo not shown) [Example F-10],,,EC50 ([1]; LUC EC50 (μM) hRORg): > 3 µM; EC50 ([2]; LUC EC50 (μM) mRORg): > 3 µM
CC(C)Cc1cc(-c2nnc([C@H](CC(=O)Nc3cccc4c3OC(F)(F)O4)OC(C)C)n2C2CC2)no1 [Example F-584],,,pEC50 [1]: < 5.52; pEC50 [2]: > 5.52
Cc1ccc(NC(=O)C[C@H](CCCO)c2nnc([C@H]3C[C@@H](CC(C)C)C3)n2C2CC2)c(C)c1 [Example F-511],,,pEC50 [1]: > 5.52; pEC50 [2]: > 5.52
Cc1ccc(CNC(=O)CCc2nnc(CCC(C)C)n2C2CC2)c(C)c1 [Example F-119],< 3 µM,< 3 µM,
CC(=O)N1C[C@H](C(=O)Nc2ccc(C)cc2C)[C@@H](c2nnc(CCC3CCCCC3)n2C2CC2)C1 [Example F-402],< 3 µM,< 3 µM,
Cc1ccc(NC(=O)[C@H]2CN(C(=O)N(C)C)C[C@@H]2c2nnc(CCCC(C)(C)C)n2C2CC2)c(C)c1 (racemic) [Example F-447],< 3 µM,< 3 µM,
Cc1cc(NC(=O)C[C@H](CC(=O)O)c2noc([C@H]3C[C@@H](CC(C)C)C3)c2C2CC2)no1 [Example F-670],,,pEC50 [1]: < 5.52; pEC50 [2]: > 5.52
Cc1ccc(NC(=O)C[C@H](C[C@H](O)CO)c2nnc(CCCC(C)C)n2C2CC2)c(C)c1 [Example F-343],< 3 µM,< 3 µM,
Cc1ccc(NC(=O)C[C@H](CCCO)c2noc(-c3cc(CC(C)C)[nH]n3)c2C2CC2)c(F)c1 [Example F-702],,,pEC50 [1]: > 5.52; pEC50 [2]: > 5.52
Cc1ccc(NC(=O)CC(CCC(=O)O)c2nnc(CCCC(C)C)n2C2CC2)c(C)c1 (racemic) [Example F-283],> 3 µM,> 3 µM,
CC(=O)N1C[C@H](C(=O)Nc2ccc(C)cc2C)[C@@H](c2nnc([C@H]3C[C@@H](OC(C)C)C3)n2C2CC2)C1 (racemic) [Example F-330],> 3 µM,> 3 µM,
Cc1ccc(NC(=O)C[C@H](CCO)c2nnc(CCCC(C)(C)C)n2C2CC2)c(C)c1 [Example F-327],< 3 µM,< 3 µM,
Cc1c(Cl)cccc1NC(=O)CCc1nnc(CCC2CCCCC2)n1C1CC1 [Example F-94],< 3 µM,< 3 µM,
COc1cc(C)ccc1CNC(=O)CCc1nnc(CC[C@H]2CC[C@H](C(F)(F)F)CC2)n1C1CC1 [Example F-251],< 3 µM,< 3 µM,
CC(=O)N1C[C@H](C(=O)Nc2ccc(C)cc2C)[C@@H](c2nnc(CCOC(C)(C)C)n2C2CC2)C1 (racemic) [Example F-222],> 3 µM,< 3 µM,
C=CCC(CC(=O)Nc1ccc(C)cc1C)c1nnc(C(F)(F)CCC(C)(C)C)n1C1CC1 (racemic) [Example F-376],< 3 µM,< 3 µM,
Cc1ccc(NC(=O)CCc2nnc([C@H]3C[C@@H](CCC(C)C)C3)n2C2CC2)c(C)c1 [Example F-444],< 3 µM,< 3 µM,
Cc1ccc(C2CC2)cc1NC(=O)CCc1nnc(CCC(C)C)n1C1CC1 [Example F-152],> 3 µM,> 3 µM,
